# Several values for one entry are separate records, joined by “and”; a condition that tells them apart may be missing. Equal entries are not always repeated. Entries after “also recorded” stand apart in the source; their conditions may differ.
# Assays:
# [1] = tested on: Rad; experiment: Whole cell proteomics (TMT SPS MS3) of non-transgenic cardiomyocytes, isoproterenol vs. no isoproterenol; type: cell-based, mouse; conditions: non-transgenic (NTG) mice cardiomyocytes; 10-minute isoproterenol
# Description: With regard to whole cell proteomics, specifically cell lysis, protein digest and TMT labeling mass spectrometry analysis, the cells were lysed by homogenization (QIAshredder cartridges, Qiagen) in lysis buffer (2% SDS, 150 mM NaCl, 50 mM Tris pH 7.4). Lysates were reduced with 5 mM DTT, alkylated with 15 mM iodoacetamide for 30 minutes in the dark, alkylation reactions quenched with freshly prepared DTT added to a concentration of 50 mM and proteins precipitated by methanol/chloroform precipitation. Digests were carried out in 1M urea freshly prepared in 200 mM EPPS pH 8.5 in presence of 2% acetonitrile (v/v) with LysC (Wako, 2 mg/ml, used 1:75 w/w protease:substrates during digest) for 3 hours at room temperature and after subsequent addition of trypsin (Promega #V5111, stock 1:100 w/w protease:substrates) over night at 37° C. Missed cleavage rate was assayed from a small aliquot by mass spectrometry. […]
# For the mass spectrometry analysis, data collection followed a MultiNotch MS^3 TMT method using an Orbitrap Lumos mass spectrometer coupled to a Proxeon EASY-nLC 1200 liquid chromatography (LC) system (both Thermo Fisher Scientific). […] In order to obtain quantitative information, MS^3 precursors were fragmented by high-energy collision-induced dissociation (HCD) and analyzed in the Orbitrap at a resolution of 50,000 at 200 Th. […]
# [2] = tested on: Rad in CaV1.2 neighbourhood; experiment: APEX2 proximity labeling with TMT mass spectrometry in Langendorff-perfused α1C-APEX2 hearts; set-up: species or system mouse; conditions: Langendorff-perfused α1C-APEX2 whole hearts; 1 μM isoproterenol, 5 minutes
# Description: The inventors also probed the impact of isoproterenol on the CaV1.2 proteome signature in Langendorff-perfused whole hearts (FIG. 9B), tracking 2,610 proteins from 10 hearts in parallel (FIG. 6K, FIG. 15C and FIG. 16A). The inventors monitored phospholamban phosphorylation to confirm that the β-adrenergic signaling pathway in cardiomyocytes is preserved in the presence of biotin-phenol and H2O2 (FIG. 14C and FIG. 14D).
# For biotinylation in Langendorff-perfused hearts, mice were injected with 5 mg/kg propranolol-HCl (Sigma PHR1308) to suppress adrenergic stimulation during the isoflurane anesthesia and cardiectomy. Hearts were retrograde perfused with Krebs' solution for 10 minutes prior to addition of biotin-phenol for 15 minutes. During the final 5 minutes, 1 μM Isoproterenol (Sigma 1351005) or vehicle was added to the perfusate. The hearts were then perfused with 1 mM H2O2 for 1 minute, followed by 3-minutes of perfusion of quenching solution. Electrocardiograms were monitored throughout the experiment to ensure viability of the preparation and an isoproterenol-induced increase in heart rate. […]
# [3] = tested on: CFP-tagged Rad localization in cardiomyocytes; experiment: Confocal fluorescence of CFP-Rad at membrane and in cytosol of cardiomyocytes before and after isoproterenol; type: cell-based; conditions: CFP-Rad adenovirus-infected rat cardiomyocytes; 5 minutes after superfusion
# Text: Mass spectrometry identified phosphorylated proteins from biotinylated, streptavidin-purified samples from APEX2 mice, and from whole hearts of wild-type (WT) mice treated with isoproterenol. […] Rad, a member of the RGK family of GTP-binding proteins, is an inhibitor of voltage-gated Ca^2+ channels and is also a PKA target. […] To further explore whether β-agonists can alter membrane-localization of Rad relative, rat cardiomyocytes were infected with adenoviruses harboring cyan fluorescent protein (CFP)-tagged Rad. The fluorescence of CFP-Rad at the membrane and in the cytosol was quantified before and after isoproterenol. The number of exposures were limited to avoid photo-bleaching.
# [4] = tested on: CaV1.2 neighbourhood proteins (Rad, PKA catalytic subunit, Sorbs2); experiment: APEX2 proximity labeling with TMT SPS MS3 in isolated cardiomyocytes, isoproterenol vs. no isoproterenol; type: cell-based, mouse; conditions: for decrease in Rad (proximity labeling, iso vs. no iso) / increase in PKA catalytic subunit (proximity labeling, iso vs. no iso): 1 μM isoproterenol, 10 minutes
# Description: Thus, proximity-labeling in cardiomyocytes treated with isoproterenol was compared to untreated controls. Cardiomyocytes were enzymatically isolated from two α1C-APEX2 mice, mixed, loaded with biotin-phenol and exposed to isoproterenol or vehicle for 10 minutes at room temperature. For the final minute, labeling was initiated with H2O2. This was repeated for myocytes from 4 additional sets of mice (total: 5 sets of biological replicates; 10 mice). Biotinylated proteins were purified and detected using TMT SPS MS^3. The isobaric labeling allowed simultaneous quantification of all proteins measured rather than just a select subset, thus enabling statistical analysis of relative enrichment between vehicle and isoproterenol treatment. Candidates in the upper left quadrant have reduced labeling (likely indicating reduced proximity) after isoproterenol and candidates in the upper right quadrant have increased labeling (likely indicating increased proximity) after isoproterenol. Mitochondrial/nuclear proteins were removed from the analysis.
# For the proximity labeling, isolated ventricular cardiomyocytes were incubated in labeling solution with 0.5 μM biotin-phenol (Iris-biotech) for 30 minutes. During the final 10 minutes of labeling, 1 μM isoproterenol (Sigma 15627) was added. To initiate labeling, H2O2 (Sigma H1009) was added to a final concentration of 1 mM for 1 min Exactly 1 minute after H2O2 treatment, the cells were washed three times with cold quenching solution containing (in mM) 10 Sodium ascorbate (VWR 95035-692), 5 Trolox (Sigma 238813), and 10 Sodium azide (Sigma S2002). After the cells were harvested by centrifugation, the quenching solution was aspirated and the pellet was flash-frozen and stored at −80° C. until streptavidin pull-down.
# With regard to the processing of biotinylated proteins for mass spectrometry, proteins were precipitated with Trichloroacetic acid (TCA; Sigma T9159) and then centrifuged at 21,130×g at 4° C. for 10 minutes. The pellet was washed with −20° C. cold acetone (Sigma 650501), vortexed, and centrifuged at 21,130×g at 4° C. for 10 minutes. Following centrifugation, acetone was aspirated and the pellet was acetone-washed again three more times.
# [5] = tested on: CaV1.2 (α1C+β2B) channels in HEK293T cells; experiment: Perforated whole-cell patch clamp of Ba2+ current, forskolin stimulation of CaV1.2 reconstituted in HEK293T cells; type: cell-based, rabbit α1C, human β2B, mouse Rad
# Text: The robust heterologous reconstitution of PKA regulation of L-type Ca^2+ currents has been long pursued as a crucial step. […] To preserve the normal intracellular milieu and signaling cascades, the inventors used perforated, whole-cell patch clamp to assess function. The inventors used Ba^2+ as the charge carrier to minimize inactivation and depolarized the membrane potential with either a voltage step to 0 mV or a voltage ramp from −60 mV to +60 mV.
# In the above, with regard to clone construction and cell culture, all mouse N-terminal-GFP-tagged mouse Rad (accession #XM_006531206) constructs in a pEGFP-C1 vector were generated by gene-synthesis (Gene Universal). The human CaV2.2 (pSAD442-1) was a gift from Diane Lipscombe (Addgene plasmid #62574). HEK293T cells were cultured in DMEM with 10% FBS, 1% Pen/Strep, and transfected with 3 μg rabbit α1C (accession #X15539) or α1B (for CaV2.2 experiments), 3 μg human β2B (NM-201590.3) and 0.5 μg N-terminal-GFP-tagged mouse Rad using Lipofectamine 2000 (Thermo Fisher Scientific). The media was changed 4-6 hours after transfection. The cells were split onto coverslips coated with attachment factor protein (Gibco). Electrophysiological recordings were carried out at room temperature 24-48 hours after transfection.
# For HEK293T cell experiments involving the forskolin-induced stimulation of CaV1.2 and CaV2.2 currents, perforated whole-cell patch clamp technique was implemented to minimize current run-down and preserve the intracellular milieu. Amphotericin B (Sigma A9528) was initially dissolved in DMSO (20 mg/ml) and used in the pipette solution at a final concentration of 200 μg/ml. The tip of the pipette was filled with amphotericin-free solution (in mM): 80 Cesium Gluconate, 40 CsCI, 10 HEPES, 10 BAPTA, 1 MgCl2, 1 Mg-ATP, pH adjusted to 7.2 with CsOH. The pipette was backfilled with (in mM): 125 CsCI, 10 HEPES, 4 CaCl2, 1 MgCl2, pH-7.2 with CsOH; containing amphotericin, 200 μg/ml. CaCl2 (4 mM) was added to the intracellular patch electrode solution to enable the detection of conversion from perforated to ruptured configuration. The external solution contained (in mM): 130 tetraethylammonium methanesulfonate, 10 HEPES, 1 MgCl2, 10 (with Rad expression) or 2 (without Rad expression) BaCI2, 5 Glucose, pH adjusted to pH 7.4 with CsOH. For experiments with HEK293T cells, in addition to step protocols, we used a ramp protocol with a 200 ms voltage ramp from −60 mV (or −70 mV for CaV1.3) to +60 mV applied every 10 s- to monitor the near-steady-state I-V relationship. All experiments were performed at room temperature, 22±1° C. Cells were selected based on co-transfection of a vector containing GFP in the absence of Rad, and GFP-conjugated Rad for the experiments with Rad transfected. For both cardiomyocytes and HEK293 cells, cells without a stable baseline (potentially due to run-down or run-up) were not studied.
# The voltage steps protocol used in cardiomyocytes studies evaluated IIpeak=Ipeak (V), which was recalculated in […] to G=G(V) as G=I/(V−Erev). For HEK cells experiments, the inventors used a ramp protocol (FIG. 17B). The experimental records were I=I(t), where t=time. The inventors transformed these records to I=I(V), which were then further transformed to G=G(V) in […] (FIG. 17B).
# [6] = tested on: CaV2.2 (α1B+β2B) channels in HEK cells; experiment: Perforated whole-cell patch clamp of Ba2+ current, forskolin stimulation of CaV2.2 in HEK cells; type: cell-based, human
# Text: N-type Ca^2+ channels (CaV2.2) are widely expressed, play an essential role in neurotransmitter release, and are targets for the development of drugs to relieve chronic pain. The inventors expressed the CaV2.2 α1B subunit with β2B and Rad in HEK cells. […] Attenuating binding of Rad […] prevented the forskolin-induced modulation of CaV2.2 current (FIG. 19F). In the above, with regard to clone construction and cell culture, all mouse N-terminal-GFP-tagged mouse Rad (accession #XM_006531206) constructs in a pEGFP-C1 vector were generated by gene-synthesis (Gene Universal). The human CaV2.2 (pSAD442-1) was a gift from Diane Lipscombe (Addgene plasmid #62574). […] The media was changed 4-6 hours after transfection. The cells were split onto coverslips coated with attachment factor protein (Gibco). Electrophysiological recordings were carried out at room temperature 24-48 hours after transfection. For HEK293T cell experiments involving the forskolin-induced stimulation of CaV1.2 and CaV2.2 currents, perforated whole-cell patch clamp technique was implemented to minimize current run-down and preserve the intracellular milieu. Amphotericin B (Sigma A9528) was initially dissolved in DMSO (20 mg/ml) and used in the pipette solution at a final concentration of 200 μg/ml. The tip of the pipette was filled with amphotericin-free solution (in mM): 80 Cesium Gluconate, 40 CsCI, 10 HEPES, 10 BAPTA, 1 MgCl2, 1 Mg-ATP, pH adjusted to 7.2 with CsOH. The pipette was backfilled with (in mM): 125 CsCI, 10 HEPES, 4 CaCl2, 1 MgCl2, pH-7.2 with CsOH; containing amphotericin, 200 μg/ml. CaCl2 (4 mM) was added to the intracellular patch electrode solution to enable the detection of conversion from perforated to ruptured configuration. […] For experiments with HEK293T cells, in addition to step protocols, we used a ramp protocol with a 200 ms voltage ramp from -60 mV (or -70 mV for CaV1.3) to +60 mV applied every 10 s- to monitor the near-steady-state I-V relationship. All experiments were performed at room temperature, 22±1° C. Cells were selected based on co-transfection of a vector containing GFP in the absence of Rad, and GFP-conjugated Rad for the experiments with Rad transfected. For both cardiomyocytes and HEK293 cells, cells without a stable baseline (potentially due to run-down or run-up) were not studied. The voltage steps protocol used in cardiomyocytes studies evaluated […]), which was recalculated in […] to G=G(V) as […]). For HEK cells experiments, the inventors used a ramp protocol (FIG. 17B). The experimental records were I=I(t), where t=time. The inventors transformed these records to I=I(V), which were then further transformed to G=G(V) in […]). The parameters of voltage-dependent activation were obtained using a modified Boltzmann distribution. […]
# [7] = tested on: CaV1.3 (α1D+β2B) channels in HEK293T cells; experiment: Perforated whole-cell patch clamp of Ba2+ current, forskolin stimulation of CaV1.3 in HEK293T cells; type: cell-based; conditions: cells expressing α1D+β2B+Rad
# Description: In adrenal chromaffin cells and the sinus node cells of the heart, L-type CaV1.3 channels are robustly stimulated by PKA. […] Thus, like CaV1.2, Rad is the missing ingredient. For HEK293T cell experiments involving the forskolin-induced stimulation of CaV1.2 and CaV2.2 currents, perforated whole-cell patch clamp technique was implemented to minimize current run-down and preserve the intracellular milieu. Amphotericin B (Sigma A9528) was initially dissolved in DMSO (20 mg/ml) and used in the pipette solution at a final concentration of 200 μg/ml. The tip of the pipette was filled with amphotericin-free solution (in mM): 80 Cesium Gluconate, 40 CsCI, 10 HEPES, 10 BAPTA, 1 MgCl2, 1 Mg-ATP, pH adjusted to 7.2 with CsOH. The pipette was backfilled with (in mM): 125 CsCI, 10 HEPES, 4 CaCl2, 1 MgCl2, pH-7.2 with CsOH; containing amphotericin, 200 μg/ml. CaCl2 (4 mM) was added to the intracellular patch electrode solution to enable the detection of conversion from perforated to ruptured configuration. […] For experiments with HEK293T cells, in addition to step protocols, we used a ramp protocol with a 200 ms voltage ramp from -60 mV (or -70 mV for CaV1.3) to +60 mV applied every 10 s- to monitor the near-steady-state I-V relationship. All experiments were performed at room temperature, 22±1° C. Cells were selected based on co-transfection of a vector containing GFP in the absence of Rad, and GFP-conjugated Rad for the experiments with Rad transfected. For both cardiomyocytes and HEK293 cells, cells without a stable baseline (potentially due to run-down or run-up) were not studied. The voltage steps protocol used in cardiomyocytes studies evaluated […]), which was recalculated in […] to G=G(V) as […]). For HEK cells experiments, the inventors used a ramp protocol (FIG. 17B). The experimental records were I=I(t), where t=time. The inventors transformed these records to I=I(V), which were then further transformed to G=G(V) in […]). The parameters of voltage-dependent activation were obtained using a modified Boltzmann distribution. […]
# [8] = tested on: CaV1.2 channels in cardiomyocytes; experiment: Whole-cell patch clamp of nisoldipine-insensitive Ca2+ current in cardiomyocytes of transgenic mice; type: cell-based, mouse
# Description: With regard to the isolation of adult cardiac myocytes, mice ventricular myocytes were isolated by enzymatic digestion using a Langendorff perfusion apparatus. Cardiomyocytes were isolated from 8-12 week-old non-transgenic and transgenic mice.
# With regard to whole cell patch clamp electrophysiology, isolated cardiomyocytes or HEK cells on glass 8×8 mm coverslips were placed in Bioptechs Delta T Dishes filled with solution containing (in mM): 112 NaCl, 5.4 KCl, 1.7 NaH2PO4. 1.6 MgCl2, 20.4 HEPES (pH 7.2), 30 Taurine, 2 DL-Carnitine, 10.3 Creatine, 5.4 Glucose. The petri dishes were mounted on the stage of an inverted microscope and served as a perfusion chamber. After establishing a seal and achieving whole-cell configuration, external solutions were changed by fast local perfusion method.
# For cardiomyocytes, pipette resistance was between 1-3 ma Membrane currents were measured by conventional (ruptured) whole-cell patch-clamp method using a MultiClamp 700B or Axopath200B amplifier and pCLAMP 10.7 software (Molecular Devices). Capacitance transients and series resistance were compensated. Voltage was corrected for liquid junction potential (−10 mV) during analysis. Leak currents were subtracted by a P/4 protocol. […]
# [9] = HEK cells expressing 35-mutant α1C+28-mutant β2B+Rad
# [10] = cells expressing α1C+β2B+Rad, forskolin vs. no forskolin
# [11] = CaV2.2 α1B+β2B co-expressed with Rad
# [12] = CaV2.2 α1B+β2B co-expressed with Rem
compound,measurement,setting,value
CC(C)NCC(O)c1ccc(O)c(O)c1 (centres unmarked) [isoproterenol],"effect on the amount of Rad (whole-cell, not proximity labeled)",[1],no significant effect; also recorded: unchanged
same,"decrease in Rad (proximity labeling, iso vs. no iso)",[2],36%
same,decrease of Rad localized at the membrane,[3],21%±3%
same,increase of cytosolic Rad,[3],20%±5%
same,"decrease in the amount of Rad, all three approaches",[4]; α1C-APEX2 and β2B-APEX2 cardiomyocytes and α1C-APEX2 whole hearts,30-50%
same,"decrease in Rad (proximity labeling, iso vs. no iso)",[4]; α1C-APEX2 cardiomyocytes,~50%
same,"increase in PKA catalytic subunit (proximity labeling, iso vs. no iso)",[4]; α1C-APEX2 cardiomyocytes,50%
same,reduction in Sorbin and SH3 domain containing 2 (Sorbs2),"[4]; α1C-APEX2 cardiomyocytes, isoproterenol 10 minutes",~57%
same,"decrease in Rad (proximity labeling, iso vs. no iso)",[4]; β2B-APEX2 cardiomyocytes,30%
same,"increase in PKA catalytic subunit (proximity labeling, iso vs. no iso)",[4]; β2B-APEX2 cardiomyocytes,68%
C=C[C@@]1(C)CC(=O)[C@]2(O)[C@@]3(C)[C@@H](O)CCC(C)(C)[C@@H]3[C@H](O)[C@H](OC(C)=O)[C@@]2(C)O1 [forskolin],"increase of Gmax, as much as",[5]; [9],≤ 3.1 fold
same,"increase of Gmax, mean",[5]; [9],1.9 fold
same,shift of V50 for activation,[5]; [9],−3.3 mV
same,"increase of Gmax, mean","[5]; cells expressing 9*-α1C, β2B and Rad",1.6 fold
same,shift of V50 for activation,[5]; cells expressing α1C+β2B+Rad,−5 mV
same,"increase of maximal conductance (Gmax), as much as",[5]; [10],≤ 4.5 fold
same,"increase of maximal conductance (Gmax), mean",[5]; [10],1.5 fold and 1.6 fold
same,"increase of Gmax, mean",[6]; [11],2.2 fold
same,shift of V50 for activation,[6]; [11],−3.7 mV
same,increase of Gmax,[6]; [12],1.6 fold
same,shift of V50 for activation,[6]; [12],−4.2 mV
same,"increase of Gmax, as much as",[7],≤ 2.3 fold
same,"increase of Gmax, mean",[7],1.9 fold
same,shift of V50 for activation,[7],−4.3 mV
same,"increase of Gmax, mean",[8]; 9* exon-containing CaV1.2 channels,1.4 fold
same,"increase of nisoldipine-insensitive maximal conductance (Gmax), mean","[8]; transgenic pWT α1C cardiomyocytes, 10 μM forskolin",1.4 fold

# — US20220397567A1, “NOVEL APPROACH FOR INCREASING CONTRACTILITY IN PATIENTS WITH SYSTOLIC HEART FAILURE” (THE TRUSTEES OF COLUMBIA UNIVERSITY IN THE CITY OF NEW YORK, priority 2019, published 2022)
